The test system of data set [1] is Alopecurus myosuroides (ALOMY). The data set is described as follows: Example A pre-emergence herbicidal activity, glasshouse pot test. As to conditions: 480 h, rate 250 g/ha, evaluated 20 days after spraying, read-out: Pre-emergence activity ALOMY (100=total damage to plant; 0=no damage to plant). The format is in vivo. In outline: (§1)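 Pot test: glasshouse-sown pots sprayed 1 day after sowing (pre-emergence) or as 10-day-old seedlings (post-emergence) with aqueous spray from an acetone/emulsifier-solvent formulation of technical compound; damage rated 20 days (pre) or 15 days (post) after treatment on 0-100 scale.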

In data set [2] the test system is Avena fatua (AVEFA). Described as above. The class given is in vivo. To be noted: 480 h, rate 250 g/ha, evaluated 20 days after spraying, read-out: Pre-emergence activity AVEFA (100=total damage to plant; 0=no damage to plant). In outline: as §1
The test system of data set [3] is Digitaria sanguinalis (DIGSA). The data set is described as above. As to conditions: 480 h, rate 250 g/ha, evaluated 20 days after spraying, read-out: Pre-emergence activity DIGSA (100=total damage to plant; 0=no damage to plant). The format is in vivo. The essentials: as §1
The test system of data set [4] is Echinochloa crus-galli (ECHCG). The description is as above. The class given is in vivo. To be noted: 480 h, rate 250 g/ha, evaluated 20 days after spraying, read-out: Pre-emergence activity ECHCG (100=total damage to plant; 0=no damage to plant). The essentials: as §1
Data set [5] concerns Lolium perenne (LOLPE). The description is as above. As to conditions: 480 h, rate 250 g/ha, evaluated 20 days after spraying, read-out: Pre-emergence activity LOLPE (100=total damage to plant; 0=no damage to plant). The class given is in vivo. The essentials:
as §1

Data set [6] relates to Setaria faberi (SETFA). The data set is described as above. The format is in vivo. To be noted: 480 h, rate 250 g/ha, evaluated 20 days after spraying, read-out: Pre-emergence activity SETFA (100=total damage to plant; 0=no damage to plant). The essentials:
as §1

Data set [7] deals with Alopecurus myosuroides (ALOMY). The data set can be described thus: Example A post-emergence herbicidal activity, glasshouse pot test. To be noted: 360 h, rate 125 g/ha, evaluated 15 days after spraying, read-out: Post-emergence activity ALOMY (100=total damage to plant; 0=no damage to plant). The class given is in vivo. In outline: as §1
In data set [8] the test system is Avena fatua (AVEFA). Described as above. To be noted: 360 h, rate 125 g/ha, evaluated 15 days after spraying, read-out: Post-emergence activity AVEFA (100=total damage to plant; 0=no damage to plant). The class given is in vivo. In outline: as §1
Data set [9] has as its system Digitaria sanguinalis (DIGSA). The data set is described as above. To be noted: 360 h, rate 125 g/ha, evaluated 15 days after spraying, read-out: Post-emergence activity DIGSA (100=total damage to plant; 0=no damage to plant). The format is in vivo. The essentials:
as §1

Data set [10] relates to Echinochloa crus-galli (ECHCG). The description is as above. The class given is in vivo. To be noted: 360 h, rate 125 g/ha, evaluated 15 days after spraying, read-out: Post-emergence activity ECHCG (100=total damage to plant; 0=no damage to plant). The essentials: as §1
In data set [11] the test system is Lolium perenne (LOLPE). Described as above. The format is in vivo. As to conditions: 360 h, rate 125 g/ha, evaluated 15 days after spraying, read-out: Post-emergence activity LOLPE (100=total damage to plant; 0=no damage to plant). In outline:
as §1

The test system of data set [12] is Setaria faberi (SETFA). The data set is described as above. The format is in vivo. As to conditions: 360 h, rate 125 g/ha, evaluated 15 days after spraying, read-out: Post-emergence activity SETFA (100=total damage to plant; 0=no damage to plant). In outline: as §1
Data set [13] deals with Alopecurus myosuroides (ALOMY). The data set is described as follows: Example B pre-emergence herbicidal activity, glasshouse pot test. The class given is in vivo. To be noted: 312 h, rate 250 g/ha, evaluated after 13 days, read-out: Pre-emergence activity ALOMY (100=total damage to plant; 0=no damage to plant). The essentials: (§2)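 Glasshouse pot assay: 24/16 °C, 14 h light, 65% humidity, twice-daily watering. Spray timing was 1 day after sowing (pre) or 8 days (post); vehicle acetone/water 50:50 with 0.5% Tween 20. Plants were rated 13 days after treatment, 100 meaning total damage.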

In data set [14] the test system is Amaranthus retroflexus (AMARE). Described as above. The format is in vivo. As to conditions: 312 h, rate 250 g/ha, evaluated after 13 days, read-out: Pre-emergence activity AMARE (100=total damage to plant; 0=no damage to plant). The essentials: as §2
Data set [15] concerns Avena fatua (AVEFA). Described as above. The class given is in vivo. To be noted: 312 h, rate 250 g/ha, evaluated after 13 days, read-out: Pre-emergence activity AVEFA (100=total damage to plant; 0=no damage to plant). The essentials: as §2
In data set [16] the test system is Echinochloa crus-galli (ECHCG). The description is as above. The class given is in vivo. To be noted: 312 h, rate 250 g/ha, evaluated after 13 days, read-out: Pre-emergence activity ECHCG (100=total damage to plant; 0=no damage to plant). In outline:
as §2

The subject of data set [17] is Setaria faberi (SETFA). Described as above. To be noted: 312 h, rate 250 g/ha, evaluated after 13 days, read-out: Pre-emergence activity SETFA (100=total damage to plant; 0=no damage to plant). The format is in vivo. The essentials: as §2
In data set [18] the test system is Alopecurus myosuroides (ALOMY). The data set can be described thus: Example B post-emergence herbicidal activity, glasshouse pot test. To be noted: 312 h, rate 250 g/ha, evaluated after 13 days, read-out: Post-emergence activity ALOMY (100=total damage to plant; 0=no damage to plant). The class given is in vivo. In outline:
as §2

Data set [19] relates to Amaranthus retroflexus (AMARE). The description is as above. The class given is in vivo. As to conditions: 312 h, rate 250 g/ha, evaluated after 13 days, read-out: Post-emergence activity AMARE (100=total damage to plant; 0=no damage to plant). In outline: as §2
For data set [20], the system named is Avena fatua (AVEFA). The description is as above. The class given is in vivo. To be noted: 312 h, rate 250 g/ha, evaluated after 13 days, read-out: Post-emergence activity AVEFA (100=total damage to plant; 0=no damage to plant). In outline:
as §2

The test system of data set [21] is Echinochloa crus-galli (ECHCG). Described as above. The class given is in vivo. As to conditions: 312 h, rate 250 g/ha, evaluated after 13 days, read-out: Post-emergence activity ECHCG (100=total damage to plant; 0=no damage to plant). The essentials:
as §2

Data set [22] deals with Setaria faberi (SETFA). The description is as above. The class given is in vivo. As to conditions: 312 h, rate 250 g/ha, evaluated after 13 days, read-out: Post-emergence activity SETFA (100=total damage to plant; 0=no damage to plant). In outline: as §2

The term melting point denotes the temperature of the solid-liquid transition. `CCc1ccc(-c2ccc(F)cc2)cc1C1=C(O)[C@@]2(C)CC[C@H](O2)C1=O` [Compound A-38] came in with a melting point of 165 to 167 °C. Also, in [1], the pest or weed control at 250 g/ha was 50%. The pest or weed control at 250 g/ha in the data set with Avena fatua (AVEFA) [2] amounted to 10%. Moreover, the pest or weed control at 250 g/ha in [3] stood at 30%. Further, the pest or weed control at 250 g/ha in [4] worked out at 70%. The pest or weed control at 250 g/ha in the data set with Lolium perenne (LOLPE) [5] was 60%. Moreover, the pest or weed control at 250 g/ha with Setaria faberi (SETFA) [6] is 90%. Moreover, the pest or weed control at 125 g/ha in data set [7] turned out to be 50%. In the data set with Avena fatua (AVEFA) [8], the pest or weed control at 125 g/ha worked out at 60%. The pest or weed control at 125 g/ha in [9] turned out to be 70%. Also, in [10], the pest or weed control at 125 g/ha came to 90%. The pest or weed control at 125 g/ha in the data set on Lolium perenne (LOLPE) [11] was 0%. In addition, in the data set with Setaria faberi (SETFA) [12], the pest or weed control at 125 g/ha turned out to be 80%.
With `CCc1ccc(-c2ccc(Cl)cc2)cc1C1=C(O)C(C)(C)OC(C)(COC)C1=O` (stereo not drawn) [Compound A-99], the melting point was in the range of 123 to 124 °C. Further, the pest or weed control at 250 g/ha in data set [13] was determined as 80%. The pest or weed control at 250 g/ha in [14] was found to be 20%. Moreover, in the data set on Avena fatua (AVEFA) [15], the pest or weed control at 250 g/ha amounted to 50%. Moreover, the pest or weed control at 250 g/ha in data set [16] was determined as 100%. For the same molecule, the pest or weed control at 250 g/ha in the data set on Setaria faberi (SETFA) [17] turned out to be 100%. Besides, in data set [18], the pest or weed control at 250 g/ha came to 90%. Further, the pest or weed control at 250 g/ha in [19] amounted to 0%. Further, the pest or weed control at 250 g/ha in the data set on Avena fatua (AVEFA) [20] came out at 90%. The pest or weed control at 250 g/ha in [21] came out at 100%. Besides, the pest or weed control at 250 g/ha in the data set on Setaria faberi (SETFA) [22] stood at 100%.

The values above are taken from patent US8680012B2, “4-phenyl-pyrane-3,5-diones,4-phenyl-thiopyrane-3,6-diones and cyclohexanetriones as novel herbicides” (Syngenta Crop Protection LLC, priority 2006, dated 2014).
